Key:
[1] = molecular target: T1, human neutrophil elastase (HNE) (Homo sapiens, UniProt P08246); assay: Human neutrophil elastase inhibition assay (spectrofluorimetric, MeOSuc-AAPV-AMC substrate)
T1 sequence (P08246 30-267): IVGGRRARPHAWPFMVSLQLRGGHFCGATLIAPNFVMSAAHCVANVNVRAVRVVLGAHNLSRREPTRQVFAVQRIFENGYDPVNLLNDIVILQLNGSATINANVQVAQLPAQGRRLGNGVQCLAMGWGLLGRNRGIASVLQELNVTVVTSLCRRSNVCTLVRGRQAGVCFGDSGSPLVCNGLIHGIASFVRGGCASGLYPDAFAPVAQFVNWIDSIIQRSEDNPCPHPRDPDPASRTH
Experimental: The inhibition of human neutrophil elastase was carried out by the spectrofluorimetric method using N-methoxysuccinyl-Ala-Ala-Pro-Val-7-amido-4-methylcoumarin (MeOSuc-AAPV-AMC) as substrate.

[2] = system: human breast adenocarcinoma (MDA-MB-231) cells; assay: Antiproliferative assay (MTT or SRB), MDA-MB-231; format: cell-based; settings: for IC50: Homo sapiens, MDA-MB-231, read-out: IC50 ± SD, antiproliferative activity; for Calculated Selectivity Index SI: IC50 Balb/3T3 / IC50 MDA-MB-231
Experimental: (§1) Cell preparation, an in vitro antiproliferative assay, and MTT and SRB cytotoxic tests were performed according to the literature.

[3] = system: caspase-3 in A549 cells; assay: Active caspase-3 flow cytometry; format: cell-based, human; settings: A549, 48 h; 10, 20 and 40 µM per method
Experimental: The rate of cell apoptosis and necrosis was detected using Annexin V-FITC/PI double staining. […] Compound 3e turned out to be a stronger inducer of apoptosis than 3c. […] In turn, compound 3c induced apoptosis only at the concentrations of 10 and 20 µM, and the percentage of cells undergoing apoptosis increased from 6.05 ± 0.17% in the control to 10.14 ± 0.76% and 14.67 ± 0.68%, respectively (Figure 4B). Moreover, compound 3e at a concentration of 5 µM induced apoptosis to a similar level as cisplatin (CDDP) used at a concentration of 4 µM. To identify the mechanism of the 3c- and 3e-induced apoptosis in the A549 cells, the activation of effector caspase-3 was evaluated by flow cytometry. […] To further explore the antiproliferative activity of compounds 3c and 3e, the influence of both compounds on the distribution of cell cycle phases in the A549 cells was analyzed. […]
The fluorescence-activated cell sorting (FACS) technique was employed to analyze the 3c- and 3e-induced cell death, the activation of executive caspase-3, and the cell cycle in the A549 cells. The quantitative analysis of apoptosis and necrosis was performed using an Annexin V-fluorescein isothiocyanate (FITC)/ propidium iodide (PI) apoptosis kit (BD Biosciences, BD Pharmingen™, San Jose, CA, USA) as previously described. […] The results were calculated as a percent of cells with active caspase-3 among all the analyzed cells. […]

[4] = system: normal mouse fibroblast (BALB/3T3) cells; assay: Antiproliferative assay (MTT or SRB), normal fibroblasts BALB/3T3; format: cell-based; settings: Balb/3T3 normal mouse fibroblasts; read-out: IC50 ± SD, antiproliferative activity
Experimental: Anticancer drugs are toxic to cancer cells, but also show some toxicity to healthy cells. […] The selectivity indexes for thiazoles 3a–3j against MV4-11 and A-549 cells were in general much higher than for MDA-MB-231 and UMUC-3 cells.
as §1

[5] = molecular target: T1, human neutrophil elastase (HNE); assay: Kinetic analysis of the inhibition of human neutrophil elastase (Lineweaver-Burk, Dixon, secondary plots); format: biochemical; settings: for Inhibition Type: Lineweaver-Burk and Dixon analysis; for Kis (enzyme-substrate-inhibitor dissociation constant): secondary plot of intercept versus inhibitor concentration; for Ki: secondary plot of slope versus inhibitor concentration, read-out: Ki (enzyme-inhibitor dissociation constant)
Experimental: Next, kinetic analysis of the mechanism of inhibition of human neutrophil elastase by thiazoles 3a–3j was determined using double-reciprocal plots of Lineweaver-Burk plots and Dixon analysis.
The first model is one in which the inhibitor binds better to the free enzyme (competitive mechanism), while the second model is one in which the inhibitor binds better to the enzyme-substrate complex (non-competitive mechanism). Next the secondary plots of slope versus concentration of test compounds were plotted to determine the enzyme-inhibitor dissociation constants Ki, and similarly as was used to determine enzyme-substrate-inhibitor dissociation constants Kis, the secondary plots of intercept versus concentration of tested compounds were plotted.
Kinetic studies were conducted in the presence of different concentrations of substrate (5, 25, 50 and 100 µM) and test compounds (in the range of 0–500 nM). The reaction conditions were the same as in the HNE inhibition assay and the reaction was monitored for 10 min at 25 °C with the same Ex an Em wavelengths. By Lineweaver–Burk plots, kinetic values such as the Michaelis–Menten constants and maximum velocity were determined. Next, two inhibition constants for inhibitor binding with free enzyme or enzyme–substrate complex (Ki and Kis) were obtained by plotting the secondary plot of the slopes of the determined straight lines or vertical intercept (1/Vmax) versus inhibitor concentration.

[6] = Spontaneous hydrolysis (chemical stability) in phosphate buffer, spectrophotometric; format: physicochemical; settings: 0.05 M phosphate buffer, pH 7.3, 25 °C; for half-life: t1/2 = 0.693/k'
Experimental: Testing the stability of new drugs is of great importance for obtaining a good therapeutic profile as well as the safety of their future use. Degradation impurities can reduce drug efficacy and generate undesirable side effects.
The kinetics hydrolysis of the compounds was evaluated at 25 °C in 0.05 M phosphate buffer, pH 7.3, by measuring changes in absorbance spectra during incubation using a T60U spectrophotometer (PG Instruments). The absorbance (At) at characteristic absorption maxima for each compound was measured at 10 min intervals until there was no further decrease in absorbance (Aꝏ). Using these measurements, semilogarithmic plots of the dependence of log(At–Aꝏ) on time were prepared, and k’ values were determined from the slope of these plots according to first order reaction kinetics. Half-conversion times were calculated using equation: t1/2 = 0.693/k’.

Row | IC50 [1] [µM] | IC50 [2] [µM] | Inhibition Type [5] | Kis (enzyme-substrate-inhibitor dissociation constant) [5] [nM] | Ki [5] [µM] | k, rate constant of spontaneous hydrolysis [6] [min⁻¹] | half-life [6] [min] | Structure (SMILES) | Calculated Selectivity Index SI [2] | number of cells with active caspase 3 [3] | IC50 [4] [µM]
1 | 0.0382 ± 0.00491 | 6.38 ± 0.71 | mixed type I inhibition | 99.50 | 0.0661 | 0.015 | 46.2 | CCC1(CC)C(=O)N(c2ccc(-c3csc(Nc4cc(OC)c(OC)c(OC)c4)n3)cc2)C1=O [3c, 3,3-Diethyl-1-(4-(2-(3,4,5-trimethoxyphenylamino)thiazol-4-yl)phenyl)azetidine-2,4-dione] | 1.16 | concentration-dependent increase in the number of cells with active caspase 3 | 7.42 ± 1.04
2 | 0.035 ± 0.00388 | 6.42 ± 1.7 | mixed type I inhibition | 240.00 | 0.0358 | 0.0175 | 39.6 | CCC1(CC)C(=O)N(c2ccc(-c3csc(Nc4ccc(S(N)(=O)=O)cc4)n3)cc2)C1=O [3e, 4-(4-(4-(3,3-Diethyl-2,4-dioxoazetidin-1-yl)phenyl)thiazol-2-ylamino)benzenesulfo-namide] | 1.02 | concentration-dependent increase in the number of cells with active caspase 3 | 6.57 ± 0.21

From publication PMC9321231
